Measured values taken from PubChem BioAssay (NCI).
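Step 1: Grow cells in 96-well plates. Step 2: Expose to compound for 48 hours at 5 concentrations. Step 3: Interpolate endpoints linearly; if unreached, use highest concentration. TGI denotes the concentration required for complete inhibition of growth.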

How the values were obtained:
Assay in all cases: NCI-60 cell line screen, 48 h
HCT-116 colon = system: HCT-116 colon
SF-295 CNS = system: SF-295 CNS
NCI/ADR-RES ovarian = system: NCI/ADR-RES ovarian
OVCAR-8 ovarian = system: OVCAR-8 ovarian
HT29 colon = system: HT29 colon
SR leukemia = system: SR leukemia
HCC-2998 colon = system: HCC-2998 colon
SF-539 CNS = system: SF-539 CNS
PC-3 prostate = system: PC-3 prostate
BT-549 breast = system: BT-549 breast
MDA-MB-231 breast = system: MDA-MB-231 breast
LOX IMVI melanoma = system: LOX IMVI melanoma
RPMI-8226 leukemia = system: RPMI-8226 leukemia
UO-31 renal = system: UO-31 renal
TK-10 renal = system: TK-10 renal
EKVX NSCLC = system: EKVX NSCLC
HOP-92 NSCLC = system: HOP-92 NSCLC
NCI-H23 lung = system: NCI-H23 lung
CAKI-1 renal = system: CAKI-1 renal
UACC-257 melanoma = system: UACC-257 melanoma
MALME-3M melanoma = system: MALME-3M melanoma
786-0 renal = system: 786-0 renal
ACHN renal = system: ACHN renal
NCI-H226 lung = system: NCI-H226 lung
MDA-MB-435 = system: MDA-MB-435
SW-620 colon = system: SW-620 colon
SK-OV-3 ovarian = system: SK-OV-3 ovarian
MOLT-4 leukemia = system: MOLT-4 leukemia
SK-MEL-28 melanoma = system: SK-MEL-28 melanoma
UACC-62 melanoma = system: UACC-62 melanoma
OVCAR-3 ovarian = system: OVCAR-3 ovarian
T-47D breast = system: T-47D breast
MCF7 breast = system: MCF7 breast
SNB-19 CNS = system: SNB-19 CNS
A498 renal = system: A498 renal
MDA-N = system: MDA-N
M14 melanoma = system: M14 melanoma
SK-MEL-2 melanoma = system: SK-MEL-2 melanoma
HS 578T breast = system: HS 578T breast
SK-MEL-5 melanoma = system: SK-MEL-5 melanoma
COLO 205 colon = system: COLO 205 colon
HL-60(TB) leukemia = system: HL-60(TB) leukemia
HOP-62 NSCLC = system: HOP-62 NSCLC
HCT-15 colon = system: HCT-15 colon
IGROV1 ovarian = system: IGROV1 ovarian
RXF 393 renal = system: RXF 393 renal
SF-268 CNS = system: SF-268 CNS
DU-145 prostate = system: DU-145 prostate
OVCAR-5 ovarian = system: OVCAR-5 ovarian
SNB-75 CNS = system: SNB-75 CNS
OVCAR-4 ovarian = system: OVCAR-4 ovarian
SN12C renal = system: SN12C renal
NCI-H460 lung = system: NCI-H460 lung
KM12 colon = system: KM12 colon
A549 NSCLC = system: A549 NSCLC
K-562 leukemia = system: K-562 leukemia
NCI-H522 lung = system: NCI-H522 lung
U251 CNS = system: U251 CNS
CCRF-CEM leukemia = system: CCRF-CEM leukemia

SMILES: O=C(Oc1cccc2cccnc12)c1cc2cc(CCl)ccc2oc1=O
- TGI (HCT-116 colon): 13.8 µM
- TGI (SF-295 CNS): > 100 µM
- TGI (NCI/ADR-RES ovarian): > 100 µM
- TGI (OVCAR-8 ovarian): > 100 µM
- TGI (HT29 colon): 33 µM
- TGI (SR leukemia): > 100 µM
- TGI (HCC-2998 colon): 50.6 µM
- TGI (SF-539 CNS): > 100 µM
- TGI (PC-3 prostate): 31.3 µM
- TGI (BT-549 breast): > 100 µM
- TGI (MDA-MB-231 breast): 89.4 µM
- TGI (LOX IMVI melanoma): > 100 µM
- TGI (RPMI-8226 leukemia): > 100 µM
- TGI (UO-31 renal): 72.2 µM
- TGI (TK-10 renal): > 100 µM
- TGI (EKVX NSCLC): 6.38 µM
- TGI (HOP-92 NSCLC): > 100 µM
- TGI (NCI-H23 lung): 42.8 µM
- TGI (CAKI-1 renal): 85.5 µM
- TGI (UACC-257 melanoma): > 100 µM
- TGI (MALME-3M melanoma): 39.7 µM
- TGI (786-0 renal): 46.7 µM
- TGI (ACHN renal): > 100 µM
- TGI (NCI-H226 lung): > 100 µM
- TGI (MDA-MB-435): > 100 µM
- TGI (SW-620 colon): > 100 µM
- TGI (SK-OV-3 ovarian): > 100 µM
- TGI (MOLT-4 leukemia): > 100 µM
- TGI (SK-MEL-28 melanoma): > 100 µM
- TGI (UACC-62 melanoma): 36.8 µM
- TGI (OVCAR-3 ovarian): > 100 µM
- TGI (T-47D breast): 54.5 µM
- TGI (MCF7 breast): 11.4 µM
- TGI (SNB-19 CNS): > 100 µM
- TGI (A498 renal): > 100 µM
- TGI (MDA-N): > 100 µM
- TGI (M14 melanoma): 88.4 µM
- TGI (SK-MEL-2 melanoma): 79.8 µM
- TGI (HS 578T breast): > 100 µM
- TGI (SK-MEL-5 melanoma): > 100 µM
- TGI (COLO 205 colon): 39.9 µM
- TGI (HL-60(TB) leukemia): 77.4 µM
- TGI (HOP-62 NSCLC): > 100 µM
- TGI (HCT-15 colon): 24.2 µM
- TGI (IGROV1 ovarian): > 100 µM
- TGI (RXF 393 renal): 49.6 µM
- TGI (SF-268 CNS): 52.7 µM
- TGI (DU-145 prostate): > 100 µM
- TGI (OVCAR-5 ovarian): > 100 µM
- TGI (SNB-75 CNS): > 100 µM
- TGI (OVCAR-4 ovarian): > 100 µM
- TGI (SN12C renal): 54.4 µM
- TGI (NCI-H460 lung): 40.9 µM
- TGI (KM12 colon): > 100 µM
- TGI (A549 NSCLC): > 100 µM
- TGI (K-562 leukemia): > 100 µM
- TGI (NCI-H522 lung): 8.87 µM
- TGI (U251 CNS): 88.4 µM

SMILES: C/C=C/[C@@H]1[C@H]2C(=O)[C@]3(Cl)[C@@H](/C=C/C)[C@@H]3C(=O)[C@@]12Cl
- TGI (HCT-116 colon): > 100 µM
- TGI (CCRF-CEM leukemia): > 100 µM
- TGI (SF-295 CNS): > 100 µM
- TGI (NCI/ADR-RES ovarian): > 100 µM
- TGI (OVCAR-8 ovarian): > 100 µM
- TGI (HT29 colon): > 100 µM
- TGI (SR leukemia): > 100 µM
- TGI (HCC-2998 colon): > 100 µM
- TGI (SF-539 CNS): > 100 µM
- TGI (PC-3 prostate): > 100 µM
- TGI (BT-549 breast): > 100 µM
- TGI (MDA-MB-231 breast): > 100 µM
- TGI (LOX IMVI melanoma): > 100 µM
- TGI (UO-31 renal): > 100 µM
- TGI (TK-10 renal): > 100 µM
- TGI (EKVX NSCLC): > 100 µM
- TGI (HOP-92 NSCLC): > 100 µM
- TGI (NCI-H23 lung): > 100 µM
- TGI (CAKI-1 renal): > 100 µM
- TGI (UACC-257 melanoma): > 100 µM
- TGI (MALME-3M melanoma): > 100 µM
- TGI (786-0 renal): > 100 µM
- TGI (ACHN renal): > 100 µM
- TGI (NCI-H226 lung): > 100 µM
- TGI (MDA-MB-435): > 100 µM
- TGI (SW-620 colon): > 100 µM
- TGI (SK-OV-3 ovarian): > 100 µM
- TGI (MOLT-4 leukemia): > 100 µM
- TGI (SK-MEL-28 melanoma): > 100 µM
- TGI (UACC-62 melanoma): > 100 µM
- TGI (OVCAR-3 ovarian): > 100 µM
- TGI (T-47D breast): > 100 µM
- TGI (MCF7 breast): > 100 µM
- TGI (SNB-19 CNS): > 100 µM
- TGI (A498 renal): > 100 µM
- TGI (MDA-N): > 100 µM
- TGI (M14 melanoma): > 100 µM
- TGI (SK-MEL-2 melanoma): > 100 µM
- TGI (HS 578T breast): > 100 µM
- TGI (SK-MEL-5 melanoma): > 100 µM
- TGI (COLO 205 colon): > 100 µM
- TGI (HL-60(TB) leukemia): > 100 µM
- TGI (HOP-62 NSCLC): > 100 µM
- TGI (HCT-15 colon): > 100 µM
- TGI (IGROV1 ovarian): > 100 µM
- TGI (RXF 393 renal): > 100 µM
- TGI (SF-268 CNS): > 100 µM
- TGI (DU-145 prostate): > 100 µM
- TGI (OVCAR-5 ovarian): > 100 µM
- TGI (SNB-75 CNS): > 100 µM
- TGI (OVCAR-4 ovarian): > 100 µM
- TGI (SN12C renal): > 100 µM
- TGI (NCI-H460 lung): > 100 µM
- TGI (KM12 colon): > 100 µM
- TGI (A549 NSCLC): > 100 µM
- TGI (K-562 leukemia): > 100 µM
- TGI (NCI-H522 lung): > 100 µM
- TGI (U251 CNS): > 100 µM
